In patent publication US5998406A, “Oxazolidinone derivatives and pharmaceutical compositions” (Pharmacia & Upjohn Company, priority 1998, dated 1999) one finds MIC data, which are given here for three compounds.

Converted amounts (≈) assume the structure as drawn.

Holding throughout (type): cell-based
The subject of test [1] is S. epidermidis, culture 12084. Description: MIC, standard agar dilution, S. epidermidis culture 12084. The settings on record: Staphylococcus epidermidis, CULTURE12084, Mueller Hinton agar, overnight at 35 C, read-out: SEPI 12084 MIC. On the procedure: (§1) The in vitro MICs of test compounds are determined by a standard agar dilution method. A stock drug solution of each analog is prepared in the preferred solvent, usually DMSO:H2 O(1:3). Serial 2-fold dilutions of each sample are made using 1.0 ml aliquots of sterile distilled water. To each 1.0 ml aliquot of drug is added 9 ml of molten Mueller Hinton agar medium. The drug-supplemented agar is mixed, poured into 15×100 mm petri dishes, and allowed to solidify and dry prior to inoculation.
(§2) Vials of each of the test organisms are maintained frozen in the vapor phase of a liquid nitrogen freezer. Test cultures are grown overnight at 35 C. on the medium appropriate for the organism. Colonies are harvested with a sterile swab, and cell suspensions are prepared in Trypticase Soy broth (TSB) to equal the turbidity of a 0.5 McFarland standard. A 1:20 dilution of each suspension is made in TSB. The plates containing the drug supplemented agar are inoculated with a 0.001 ml drop of the cell suspension using a Steers replicator, yielding approximately 10^4 to 10^5 cells per spot. The plates are incubated overnight at 35 C.
(§3) Following incubation the Minimum Inhibitory Concentration (MIC μg/ml), the lowest concentration of drug that inhibits visible growth of the organism, is read and recorded.
^b) S. epidermidis, culture 12084

The test system of a further test is S. aureus, culture 9213. The test is described as follows: MIC, standard agar dilution, S. aureus culture 9213. To be noted: Staphylococcus aureus, CULTURE9213, Mueller Hinton agar, overnight at 35 C, read-out: SAUR 9213 MIC. On the procedure:
as §1, §2, §3
^a) S. aureus, culture 9213

Test [2] relates to E. faecalis, culture 9217. Description: MIC, standard agar dilution, E. faecalis culture 9217. The settings on record: Enterococcus faecalis, CULTURE9217, Mueller Hinton agar, overnight at 35 C, read-out: EFAE 9217 MIC. On the procedure:
as §1, §2, §3
^c) E. faecalis, culture 9217

In test [3] the test system is M. catarrhalis, culture 30610. The test is described as follows: MIC, standard agar dilution, M. catarrhalis culture 30610. The settings on record: Moraxella catarrhalis, CULTURE30610, Mueller Hinton agar, overnight at 35 C, read-out: MCAT 30610 MIC. How it is done:
as §1, §2, §3
^f) M. catarrhalis, culture 30610
A general note: In agar dilution the substance is mixed into plates at graded concentrations.

In test [4] the test system is H. influenzae, culture 30063. The test is described as follows: MIC, standard agar dilution, H. influenzae culture 30063. To be noted: Haemophilus influenzae, CULTURE30063, Mueller Hinton agar, overnight at 35 C, read-out: HINF 30063 MIC. How it is done:
as §1, §2, §3
^e) H. influenzae, culture 30063

In test [5] the test system is S. pueumoniae, culture 9912. The test is described as follows: MIC, standard agar dilution, S. pueumoniae culture 9912. The settings on record: Mueller Hinton agar, overnight at 35 C, read-out: SPNE 9912 MIC. How it is done: as §1, §2, §3
^d) S. pueumoniae, culture 9912

With `CC(=O)NC[C@H]1CN(c2ccc(N3CCNC(=O)CC3)c(F)c2)C(=O)O1` [Example 1, (S)-N-[[3-[3-fluoro-4-(1,2,3,4,6,7-hexahydro-5-oxo-1,4-diazepin-1-yl)phenyl]-2-oxo-5-oxazolidinyl]methyl]acetamide], the MIC in test [1] was determined as 1 µg/mL (≈ 2.74 µM); with S. aureus, culture 9213, 4 µg/mL (≈ 11 µM); in test [2] it was 4 µg/mL (≈ 11 µM); in test [3], 8 µg/mL (≈ 22 µM); in test [4], 8 µg/mL (≈ 22 µM); in test [5], 0.5 µg/mL (≈ 1.37 µM).

In the case of `CC(=O)NC[C@H]1CN(c2ccc(N3CCC(=O)N(C)CC3)c(F)c2)C(=O)O1` [Example 3, (S)-N-[[3-[3-fluoro-4-(1,2,3,4,6,7-hexahydro-4-methyl-5-oxo-1,4-diazepin-1-yl)phenyl]-2-oxo-5-oxazolidinyl]methyl]-acetamide], the MIC was found to be 1 µg/mL (≈ 2.64 µM) in test [1]; 4 µg/mL (≈ 10.6 µM) with S. aureus, culture 9213; 4 µg/mL (≈ 10.6 µM) in test [2]; 8 µg/mL (≈ 21.1 µM) in test [3]; 32 µg/mL (≈ 84.6 µM) in test [4]; 1 µg/mL (≈ 2.64 µM) in test [5].

Regarding `CC(=S)NC[C@H]1CN(c2ccc(N3CCC(=O)N(C)CC3)c(F)c2)C(=O)O1` [Example 4, (S)-N-[[3-[3-fluoro-4-(1,2,3,4,6,7-hexahydro-4-methyl-5-oxo-1,4-diazepin-1-yl)phenyl]-2-oxo-5-oxazolidinyl]methyl]-thioacetamide], the MIC in test [1] is below 0.5 µg/mL; with S. aureus, culture 9213 it was 1 µg/mL (≈ 2.54 µM); in test [2] it was 1 µg/mL (≈ 2.54 µM); in test [3], 2 µg/mL (≈ 5.07 µM); in test [4], 8 µg/mL (≈ 20.3 µM); in test [5], below 0.5 µg/mL.
